From PubChem BioAssay AID1361 (SRMLSC, 2008)
Activity calls are given as the source filed them. No rule for the calls is given here.

Assay: blockers of mitochondrial fusion, WT vs mutant – cell-based, chemical genetic, wild-type and mutant, confirmation (AID 1361)
Details: Cell-based mitochondrial fusion phenotype, imaging
[1] = mutant cells, measured here: mutant cell line IC50

Row | Structure (SMILES) | IC50 (WT cells) | IC50 [1]
1 | O=C(NCC1(c2ccccc2)CCCC1)C1(c2ccccc2)CCCC1 | 16.8 µM | > 25 µM
2 | N#Cc1c(NC(=S)NC(=O)C2CCCC2)sc2c1CCCCC2 | 10.5 µM | > 25 µM
3 | CCC(C)c1ccc(NC(=S)Nc2ccc(OC)c(OC)c2)cc1 (stereo not given) | > 25 µM (inactive) | > 25 µM
4 | Cc1ccc(-n2cccc2C(=S)N=P(N(C)C)(N(C)C)N(C)C)cc1 | 9.32 µM | > 25 µM
5 | Cc1ccccc1Nc1scc(-c2ccc(Cl)cc2)[n+]1-c1ccccc1C | 8.24 µM | > 25 µM
6 | Cc1cc(NC(=S)N(Cc2ccc(Br)cc2)Cc2ccc(C(=O)O)cc2)ccc1Cl | 16.3 µM | > 25 µM
7 | CC(C)Nc1nc(Oc2cccc(Cl)c2Cl)cc(C(F)(F)F)n1 | 23.6 µM | > 25 µM
8 | CCCCSc1nnc(-c2ccc(C)cc2)c2ccccc12 | 9.57 µM | 23.1 µM
9 | Cc1nc(=O)c(-c2ccccc2)c(C)n1CCCCCC(=O)O | > 25 µM (inactive) | > 25 µM
10 | COc1cc(OC)c2c(c1)C(=O)c1cc(OC)cc(OC)c1C2=O | > 25 µM (inactive) | > 25 µM
11 | O=C(NC(=S)NCCC1=CCCCC1)c1ccccc1Br | 20.9 µM | > 25 µM
12 | O=C(NC1CCS(=O)(=O)C1)c1ccc(-c2ccc(Br)cc2)o1 (stereo not given) | > 25 µM (inactive) | > 25 µM
13 | COC(=O)c1ccc(NCC(=O)c2ccccc2)cc1 | > 25 µM (inactive) | > 25 µM
14 | Cc1cccc(-n2ncc3c(N4CC(C)CC(C)C4)ncnc32)c1 (stereo not given) | 14.6 µM | 20 µM
15 | CCN(Cc1cc2ccc(C)cc2[nH]c1=O)C(=O)c1ccncc1 | > 25 µM (inactive) | > 25 µM
16 | COC(=O)C1=C(CSc2nc3ccccc3o2)NC(=O)NC1c1cc(C)ccc1C (stereo not given) | > 25 µM (inactive) | > 25 µM
17 | N#CC1=C(N)NC(SCC(=O)c2ccc(Br)cc2)=C(C#N)C12CCCCC2 | 19.4 µM | > 25 µM
18 | CCCCC(=O)NC(=S)Nc1ccccc1N1CCCCC1 | 19.8 µM | > 25 µM
19 | COc1ccc(NS(=O)(=O)c2ccc3oc(Nc4ccc5c(c4)OCCO5)nc3c2)cc1 | 17.6 µM | > 25 µM
20 | Cc1ccc(-n2cccc2/C=C2\C(=N)N3N=C(C(C)C)SC3=NC2=O)cc1 | 10.6 µM | > 25 µM
21 | CCC(C(=O)OCC(=O)Nc1ccccc1-c1ccccc1)c1ccccc1 (stereo not given) | 17.3 µM | > 25 µM
22 | CCC(=Nc1ccc(OC)cc1OC)c1c(O)n(C2CCCCC2)c(=O)[nH]c1=O | 15.9 µM | > 25 µM

Row | Structure (SMILES) | IC50 (WT cells) | IC50 [1]
23 | COc1ccc(-c2nnc(SCC(=O)c3cccs3)o2)c(OC)c1 | > 25 µM (inactive) | > 25 µM
24 | O=C(Cc1ccc(Cl)cc1)Nc1ccccc1CO | > 25 µM (inactive) | > 25 µM
25 | CC1(C(=O)N(Cc2ccccc2)Cc2ccccc2)CC1(Br)Br (stereo not given) | 15.7 µM | > 25 µM
26 | COc1ccc(/C=N/N(Cc2ccccc2)c2ccccc2)cc1O | 11.6 µM | > 25 µM
27 | CC1(C(=O)OCC(=O)c2c[nH]c3ccccc23)CC1(Cl)Cl (stereo not given) | 5.84 µM | 9.97 µM
28 | Clc1ccc2c(c1)C(c1ccccc1Cl)=NCc1nnc(N3CCN(CCSc4ccccc4)CC3)n1-2 | 13.9 µM | > 25 µM
29 | NC(=S)n1[nH]c(-c2ccc([N+](=O)[O-])cc2)c(N=Nc2ccc(Cl)cc2)c1=O | 8.34 µM | > 25 µM
30 | COc1ccc(S(=O)(=O)N2CCCCCC2)cc1C(=O)OCc1c(C)noc1C | > 25 µM (inactive) | > 25 µM
31 | O=C(COc1ccccc1-c1ccccc1)NCc1cccc(Cl)c1 | 15 µM | > 25 µM
32 | CC(=O)N1N=C(c2ccc(C)cc2)OC1c1ccc(Br)cc1 (stereo not given) | 21 µM | > 25 µM
33 | CC(C)c1ccc(OCc2nc(-c3ccccn3)no2)c(Br)c1 | 15.6 µM | 20.8 µM
34 | CNC(=S)N/N=C/c1cccc(OCc2ccccc2F)c1 | > 25 µM (inactive) | > 25 µM
35 | Cn1c(=O)c2c(nc(N3CCCCCC3)n2Cc2cccc3ccccc23)n(C)c1=O | 10 µM | > 25 µM
36 | CC(C)N1C(=O)/C(=C\c2nc3ccccc3c(=O)n2-c2ccccc2)c2ccccc21 | 18.8 µM | > 25 µM
37 | S=C(Nc1ccc(Oc2ccccc2)cc1)NC1CCCCCC1 | 5.19 µM | 10 µM
38 | N#CC1=C(N)C2=CCCC[C@H]2[C@H](c2ccc(Br)cc2)C1(C#N)C#N | 4.48 µM | 7.07 µM
39 | O=C(NCc1ccccc1)c1ccc(C(=O)N(C2CCCCC2)C2CCCCC2)cc1 | > 25 µM (inactive) | > 25 µM
40 | Nc1c(C(=O)NC2CCCC2)sc2nc(-c3cccs3)ccc12 | > 25 µM (inactive) | > 25 µM
41 | CCN(CC)S(=O)(=O)c1cccc(C(=O)Nc2sc3c(c2C(N)=O)CCCC3)c1 | > 25 µM (inactive) | > 25 µM
42 | CNC(=S)NCCC(c1ccccc1)c1ccccc1 | > 25 µM (inactive) | > 25 µM
43 | COc1cc(CNn2cn[nH]c2=S)cc(Cl)c1OCc1ccc(F)cc1 | 21.2 µM | > 25 µM
44 | CCOC(=O)c1c(-n2c(C)cc(C=C3C(=O)NC(=S)NC3=O)c2C)sc2c1CCCC2 | 7.21 µM | > 25 µM

Row | Structure (SMILES) | IC50 (WT cells) | IC50 [1]
45 | COc1cccc2cc(C(=O)N3CCc4ccccc43)c(=O)oc12 | > 25 µM (inactive) | > 25 µM
46 | Cc1ccc(-c2csc3ncnc(N4CCc5ccccc5C4)c23)cc1 | 9.52 µM | > 25 µM
47 | COc1cc(/C=N/NC(=O)CCc2ccccc2)ccc1O | > 25 µM (inactive) | > 25 µM
48 | Cc1nc(C)c(-c2csc(Nc3cccc(O)c3)n2)s1 | > 25 µM (inactive) | > 25 µM
49 | CCOc1ccc(OCC)c(S(=O)(=O)NCCOC23CC4CC(CC(C4)C2)C3)c1 | > 25 µM (inactive) | > 25 µM
50 | O=C1c2ccccc2C(=O)N1CCN1CCCCC1 | > 25 µM (inactive) | > 25 µM
51 | C/C(CCN1CCc2nc(-c3ccccc3)c(-c3ccccc3)cc2C1)=N\OC[C@@H](C)[C@H](OCc1ccccc1)C(C)C | > 25 µM (inactive) | > 25 µM
52 | Cc1ccc(Cl)cc1N1CCN(CC(=O)NC2CCCc3ccccc32)CC1 (stereo not given) | 11.6 µM | 23.7 µM
53 | CCCCCC(=O)Nc1cc(N(C)C)nc2ccccc12 | > 25 µM (inactive) | > 25 µM
54 | Oc1ccccc1CN(Cc1ccco1)CC(O)COCc1ccc(Cl)cc1 (stereo not given) | 19.1 µM | > 25 µM
55 | CCOc1ccccc1CNC(=O)c1ccc(Sc2ccc(Cl)cc2)c(NC(C)=O)c1 | 16.9 µM | > 25 µM
56 | CCOC(=O)CSc1n[nH]c(-c2cccnc2)n1 | > 25 µM (inactive) | > 25 µM
57 | CCOc1ccc(NC(=O)CSc2nnc(-c3ccco3)n2C)cc1 | > 25 µM (inactive) | > 25 µM
58 | O=[N+]([O-])c1ccc(Nc2c3ccccc3nc3ccccc23)cc1 | 12.4 µM | 18.1 µM
59 | Fc1ccc(N2CCN(c3nc(CN4CCOCC4)nc4scc(-c5ccccc5)c34)CC2)cc1 | 19.6 µM | 24 µM
60 | CC1CC2=C(NC(=S)NC2c2cccc(F)c2)/C(=C/c2cccc(F)c2)C1 (stereo not given) | 8.15 µM | > 25 µM
61 | CCCC/C(C)=C/[C@@H](NP(=O)(c1ccccc1)c1ccccc1)c1ccccc1 | 9.84 µM | > 25 µM
62 | CCOC(=O)c1c(C)[nH]c(C)c1C(=O)COC(=O)c1cc2ccccc2cc1O | 17.2 µM | > 25 µM
63 | O=C(CCN1C(=O)/C(=C\c2cccs2)SC1=S)NC1=NCCS1 | 8.36 µM | 17.6 µM
64 | COc1cccc(-c2ccc(C#N)c(OC(=O)c3c(Cl)cccc3Cl)n2)c1 | > 25 µM (inactive) | > 25 µM
65 | COc1ccccc1/C=C/C=N\N1CCN(Cc2ccccc2Cl)CC1 | 20.9 µM | > 25 µM
66 | COc1ccc(OC)c(S(=O)(=O)Nc2ccc(Oc3ccccc3)cc2)c1 | > 25 µM (inactive) | > 25 µM

Row | Structure (SMILES) | IC50 (WT cells) | IC50 [1]
67 | CCOC(=O)C1=C(NC(=S)NC(=O)c2ccccc2)c2ccccc2CC1(C)CC (stereo not given) | 7.33 µM | > 25 µM
68 | O=C(C1CCCCC1)N(Cc1ccccc1)c1ccccn1 | > 25 µM (inactive) | > 25 µM
69 | CC1CC(C)CN(c2ncnc3c2cnn3Cc2ccc(Cl)cc2)C1 (stereo not given) | 12.8 µM | 17.9 µM
70 | O=c1cc(N2CCCCC2)c(-c2ccccc2)nn1Cc1ccc(F)cc1 | 17.4 µM | > 25 µM
71 | CCc1nnc(NC(=O)c2ccc(S(=O)(=O)N(CC(C)C)CC(C)C)cc2)o1 | 22.5 µM | > 25 µM
72 | CC(C)(C)n1nnnc1C(c1ccc(F)cc1)N(Cc1ccc(F)cc1)Cc1ccco1 (stereo not given) | 14.6 µM | > 25 µM
73 | CN(C(=S)Nc1ccc(SC(F)F)cc1)c1ccc(O)cc1 | > 25 µM (inactive) | > 25 µM
74 | COC(=O)C1C(=O)NCC1c1ccccc1 (stereo not given) | > 25 µM (inactive) | > 25 µM
75 | Cc1cc(C)n(CC(O)Cn2c3ccc(Cl)cc3c3cc(Cl)ccc32)c(=O)n1 (stereo not given) | 16.6 µM | > 25 µM
76 | CC12CCC(O)CC1=CCC1C2CCC2(C)C1CCC21CCC(=O)O1 (stereo not given) | 15 µM | > 25 µM
77 | CCOC(=O)CC(=O)CSc1nc(C)nc2c1oc1ccccc12 | > 25 µM (inactive) | > 25 µM
78 | c1ccc(-c2nc(N3CCCCC3)nc3ccccc23)cc1 | 18.3 µM | 19.4 µM
79 | COc1ccc(Br)cc1CN(C)CC(=O)Nc1cc(Cl)cc(Cl)c1 | 9.17 µM | 22.1 µM
80 | Brc1cnc(N2CCCCC2)nc1N1CCOCC1 | > 25 µM (inactive) | > 25 µM
81 | CCCCN1C(=O)NC(=O)C2(Cc3c(nc4c(C)cccn4c3=O)N3CCc4ccccc4C32)C1=O (stereo not given) | 11.9 µM | > 25 µM
82 | CCn1c(CNC(=O)c2ccco2)nnc1SCC(=O)Nc1cc(C(F)(F)F)ccc1Cl | > 25 µM (inactive) | > 25 µM
83 | CCn1c(C(=O)N2CCc3ccccc3C2)cc2oc3ccccc3c21 | 8.84 µM | > 25 µM
84 | CC1(C)C(=O)OC(c2cccn2-c2cccc([N+](=O)[O-])c2)C2(CCCCC2)C1=O (stereo not given) | 9.07 µM | 11.1 µM
85 | Cc1ccc(C(C(=O)NC2CCCC2)N(C(=O)Cc2cccs2)c2ccc(C)c(C)c2)o1 (stereo not given) | 22.4 µM | > 25 µM
